Measured values: patent publication US11072612B2, “NLRP3 modulators” (INNATE TUMOR IMMUNITY, INC., priority 2016, dated 2021)

Key:
Type in all cases: cell-based
hNLRP3 = target: T1, hNLRP3 (Homo sapiens, UniProt Q96P20); test: hNLRP3 agonist assay: IL-1β production in PMA-differentiated THP-1 cells (ELISA); details: IL-1β by ELISA
T1 construct: THP-1 cells were purchased from the American Type Culture Collection; host or cells: THP-1 cells, PMA-differentiated
Method: THP-1 cells were purchased from the American Type Culture Collection and sub-cultured according to instructions from the supplier. Prior to experiments, cells were cultured in RPMI 1640 containing 10% heat inactivated FBS, penicillin (100 units/ml) and streptomycin (100 μg/ml), and maintained in log phase prior to experimental setup. Prior to the experiment THP-1 were treated with PMA (Phorbol 12-myristate 13-acetate) (10 μg/ml) for 24 hours. The day of the experiment the media was removed and attaching cells were treated with trypsin for 2 minutes, cells were then collected, washed with PBS (phosphate buffer saline), spin down, resuspended in 2% heat inactivated FBS with RPMI at a concentration of 1×10^6 cells/ml, and 100 μl was plated in a 96 well plate. Cells were incubated with compounds for 4 hours. Cell free supernatant was collected and the production of IL-1β was evaluated by ELISA. Compounds were dissolved in dimethyl sulfoxide (DMSO) and added to the culture medium to achieve desired concentration (e.g. 100, 30, 10, 3, 1, 0.3 or 0.1 μM). A vehicle only control was run concurrently with each experiment. Final DMSO concentration was 1%.

TLR7 = target: T2, TLR7 (Homo sapiens, UniProt Q9NYK1); test: TLR7 EC50 assay
T2 sequence (Q9NYK1 27-1049): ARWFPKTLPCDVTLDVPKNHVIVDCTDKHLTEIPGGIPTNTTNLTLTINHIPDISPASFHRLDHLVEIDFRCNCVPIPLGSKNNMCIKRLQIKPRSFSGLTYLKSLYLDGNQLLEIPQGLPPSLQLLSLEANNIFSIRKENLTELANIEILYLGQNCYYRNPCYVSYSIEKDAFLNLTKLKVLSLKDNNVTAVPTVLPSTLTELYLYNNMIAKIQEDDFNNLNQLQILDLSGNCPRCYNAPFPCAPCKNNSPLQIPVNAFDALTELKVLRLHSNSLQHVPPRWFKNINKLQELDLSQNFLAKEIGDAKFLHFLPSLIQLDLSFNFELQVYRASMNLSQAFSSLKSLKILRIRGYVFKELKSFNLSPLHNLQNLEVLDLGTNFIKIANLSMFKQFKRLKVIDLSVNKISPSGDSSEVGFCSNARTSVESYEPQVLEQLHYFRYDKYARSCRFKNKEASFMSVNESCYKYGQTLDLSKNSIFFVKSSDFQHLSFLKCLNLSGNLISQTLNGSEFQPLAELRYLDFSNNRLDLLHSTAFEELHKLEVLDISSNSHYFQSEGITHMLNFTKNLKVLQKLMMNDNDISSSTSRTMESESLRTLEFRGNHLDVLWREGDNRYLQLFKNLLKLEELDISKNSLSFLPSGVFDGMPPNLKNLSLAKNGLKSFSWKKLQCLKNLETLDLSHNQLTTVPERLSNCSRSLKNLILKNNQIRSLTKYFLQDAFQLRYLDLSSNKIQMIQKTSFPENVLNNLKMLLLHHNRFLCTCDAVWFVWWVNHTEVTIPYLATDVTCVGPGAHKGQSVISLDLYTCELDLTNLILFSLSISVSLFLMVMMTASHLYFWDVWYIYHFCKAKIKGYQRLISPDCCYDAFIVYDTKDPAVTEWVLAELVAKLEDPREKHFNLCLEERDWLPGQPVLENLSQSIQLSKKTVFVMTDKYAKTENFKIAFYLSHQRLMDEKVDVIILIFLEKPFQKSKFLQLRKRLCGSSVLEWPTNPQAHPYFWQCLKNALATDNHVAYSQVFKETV

TLR8 = target: T3, TLR8 (Homo sapiens, UniProt Q9NR97); test: TLR8 EC50 assay
T3 sequence (Q9NR97 27-1041): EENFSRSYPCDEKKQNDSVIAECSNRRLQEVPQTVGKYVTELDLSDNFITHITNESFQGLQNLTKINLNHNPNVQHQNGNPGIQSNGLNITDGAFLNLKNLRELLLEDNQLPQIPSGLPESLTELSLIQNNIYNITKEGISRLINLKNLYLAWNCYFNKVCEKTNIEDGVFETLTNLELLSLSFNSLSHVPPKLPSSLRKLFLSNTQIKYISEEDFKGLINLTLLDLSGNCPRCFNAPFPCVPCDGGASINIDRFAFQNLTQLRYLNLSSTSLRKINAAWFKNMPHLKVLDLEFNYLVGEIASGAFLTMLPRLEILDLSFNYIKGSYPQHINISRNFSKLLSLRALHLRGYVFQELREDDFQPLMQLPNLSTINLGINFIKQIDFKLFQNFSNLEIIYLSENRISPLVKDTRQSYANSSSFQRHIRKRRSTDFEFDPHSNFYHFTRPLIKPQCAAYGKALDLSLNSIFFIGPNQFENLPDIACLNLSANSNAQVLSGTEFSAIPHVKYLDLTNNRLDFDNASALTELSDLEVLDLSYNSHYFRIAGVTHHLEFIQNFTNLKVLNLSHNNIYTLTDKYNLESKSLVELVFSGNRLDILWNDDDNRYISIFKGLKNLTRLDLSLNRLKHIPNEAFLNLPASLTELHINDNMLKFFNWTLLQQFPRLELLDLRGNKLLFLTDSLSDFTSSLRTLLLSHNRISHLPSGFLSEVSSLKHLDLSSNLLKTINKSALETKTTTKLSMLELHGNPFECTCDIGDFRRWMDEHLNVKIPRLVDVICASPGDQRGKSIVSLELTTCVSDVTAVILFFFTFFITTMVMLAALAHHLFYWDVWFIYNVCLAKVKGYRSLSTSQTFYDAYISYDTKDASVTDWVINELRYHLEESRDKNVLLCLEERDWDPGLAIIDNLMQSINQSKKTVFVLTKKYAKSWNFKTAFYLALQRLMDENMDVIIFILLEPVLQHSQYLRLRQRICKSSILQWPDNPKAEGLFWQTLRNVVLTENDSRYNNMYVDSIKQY

T1 sequence (Q96P20 whole entry): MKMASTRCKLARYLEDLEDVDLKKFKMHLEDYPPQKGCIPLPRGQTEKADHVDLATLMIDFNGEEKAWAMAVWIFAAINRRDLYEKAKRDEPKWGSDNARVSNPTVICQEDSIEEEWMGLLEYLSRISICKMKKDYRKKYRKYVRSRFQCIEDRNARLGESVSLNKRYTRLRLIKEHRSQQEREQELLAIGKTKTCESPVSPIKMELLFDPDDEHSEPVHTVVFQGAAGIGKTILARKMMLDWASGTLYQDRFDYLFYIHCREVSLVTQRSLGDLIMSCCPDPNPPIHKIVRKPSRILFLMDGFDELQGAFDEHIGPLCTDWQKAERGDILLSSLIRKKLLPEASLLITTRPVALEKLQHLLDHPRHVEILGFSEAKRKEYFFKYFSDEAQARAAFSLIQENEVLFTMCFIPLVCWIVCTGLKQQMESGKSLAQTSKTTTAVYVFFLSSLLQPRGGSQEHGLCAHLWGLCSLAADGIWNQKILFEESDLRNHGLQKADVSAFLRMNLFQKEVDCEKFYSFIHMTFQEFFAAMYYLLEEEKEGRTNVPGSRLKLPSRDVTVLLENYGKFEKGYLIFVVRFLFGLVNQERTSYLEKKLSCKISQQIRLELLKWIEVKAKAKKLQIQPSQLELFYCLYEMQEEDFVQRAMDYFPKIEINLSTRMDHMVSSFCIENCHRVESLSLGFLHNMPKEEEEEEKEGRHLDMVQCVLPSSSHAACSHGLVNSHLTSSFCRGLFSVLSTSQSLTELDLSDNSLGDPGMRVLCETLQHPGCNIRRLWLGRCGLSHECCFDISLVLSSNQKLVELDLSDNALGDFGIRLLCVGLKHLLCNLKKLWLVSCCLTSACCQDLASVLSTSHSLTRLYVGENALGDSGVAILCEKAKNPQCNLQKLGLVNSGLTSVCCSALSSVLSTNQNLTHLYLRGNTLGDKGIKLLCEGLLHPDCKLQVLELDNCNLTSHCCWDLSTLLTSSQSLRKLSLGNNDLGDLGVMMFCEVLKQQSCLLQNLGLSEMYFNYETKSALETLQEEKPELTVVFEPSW

| Compound | EC50 (hNLRP3; Table 1, 4 hours) [µM] | EC50 (TLR7; Table 1) [µM] | EC50 (TLR8; Table 1) [µM] | EC50 (hNLRP3; Table 2, 4 hours) [µM] | EC50 (TLR7; Table 2) [µM] | EC50 (TLR8; Table 2) [µM] |
| --- | --- | --- | --- | --- | --- | --- |
| Nc1nc2ccccc2c2[nH]c(CCCO)nc12 [Compound 101, 3-[4-amino-1H-imidazo[4,5-c]quinolin-2-yl]propan-1-ol] | 20 to 100 | 20 to 100 | 20 to 100 |  |  |  |
| Cn1c(CCCO)nc2c(N)nc3cc(-c4cc[nH]n4)ccc3c21 [Compound 107] |  |  |  | ≤ 1 | > 100 | > 100 |
| Cn1c(CCCO)nc2c(N)nc3cc(-n4cccn4)ccc3c21 [Compound 108] |  |  |  | ≤ 1 | > 100 | > 100 |
| Nc1nc2cc(-n3cccn3)ccc2c2[nH]c(CN3CC4COCC4C3)nc12 (stereo not shown) [Compound 109] |  |  |  | ≤ 1 |  |  |
| CC(C)(C)OC(=O)NC1CCC(c2nc3c(N)nc4cc(Br)ccc4c3[nH]2)CC1 (stereo not shown) [Compound 110] |  |  |  | 1 to 20 | > 100 | > 100 |
| Cc1ccc2c(c1)nc(N)c1nc(CCCO)[nH]c12 [Compound 111] |  |  |  | 1 to 20 | > 100 | 20 to 100 |
| Cn1c(CCCO)nc2c3ccc(-n4cccn4)cc3nc(N)c21 [Compound 113] |  |  |  | 1 to 20 | > 100 | > 100 |
| CS(=O)(=O)N1CCC(c2nc3c(N)nc4cc(-n5cccn5)ccc4c3[nH]2)CC1 [Compound 114] |  |  |  | 1 to 20 | > 100 | > 100 |
| Nc1nc2cc(N3CCNC3=O)ccc2c2[nH]c(CCCO)nc12 [Compound 115] |  |  |  | 1 to 20 | > 100 | > 100 |
| Nc1nc2cc(Br)ccc2c2[nH]c(C3CCC(O)CC3)nc12 (stereo not shown) [Compound 116] |  |  |  | 1 to 20 |  |  |
| CC(C(=O)O)c1ccc2c(c1)nc(N)c1nc(CCCO)[nH]c12 (stereo not shown) [Compound 117] |  |  |  | 1 to 20 | > 100 | > 100 |
| Nc1nc2cc(Br)c(F)cc2c2[nH]c(CCCO)nc12 [Compound 118] |  |  |  | 1 to 20 | > 100 | > 100 |
| CC(=O)c1ccc2c(c1)nc(N)c1nc(CCCO)[nH]c12 [Compound 119] |  |  |  | 1 to 20 | > 100 | > 100 |
| CC(C(N)=O)c1ccc2c(c1)nc(N)c1nc(CCCO)[nH]c12 (stereo not shown) [Compound 120] |  |  |  | 1 to 20 | > 100 | > 100 |
| Nc1nc2cc(CC(=O)O)ccc2c2[nH]c(CCCO)nc12 [Compound 121] |  |  |  | 1 to 20 | > 100 | > 100 |
| Nc1nc2cc(Br)ccc2c2[nH]c([C@H]3CC[C@@H](O)CC3)nc12 [Compound 122] |  |  |  | 1 to 20 | > 100 | > 100 |
| CN(CCCc1nc2c(N)nc3cc(-c4cncnc4)ccc3c2[nH]1)C(=O)OC(C)(C)C [Compound 123] |  |  |  | 1 to 20 | > 100 | > 100 |
| COc1ccc2c(c1)nc(N)c1nc(CCCO)[nH]c12 [Compound 124] |  |  |  | 1 to 20 | > 100 | > 100 |
| Nc1nc2cc(Br)ccc2c2[nH]c([C@H]3CC[C@H](O)CC3)nc12 [Compound 125] |  |  |  | 1 to 20 | > 100 | > 100 |
| Nc1nc2cc(Cl)c(Cl)cc2c2[nH]c(CCCO)nc12 [Compound 126] |  |  |  | 1 to 20 | > 100 | > 100 |
| Nc1nc2cc(C(F)(F)F)ccc2c2[nH]c(CCCO)nc12 [Compound 127] |  |  |  | 20 to 100 | 20 to 100 | > 100 |
| Cc1cc2nc(N)c3nc(CCCO)[nH]c3c2cc1F [Compound 128] |  |  |  | 20 to 100 | > 100 | 20 to 100 |
| Nc1nc2cc(C3CCNC3)ccc2c2[nH]c(CCCO)nc12 (stereo not shown) [Compound 197, 3-(4-amino-7-pyrrolidin-3-yl-1H-imidazo[4,5-c]quinolin-2-yl)propan-1-ol] |  |  |  | > 100 | > 100 |  |
| Nc1nc2cc(C3CCNCC3)ccc2c2[nH]c(CCCO)nc12 [Compound 198, 3-(4-amino-7-piperidin-4-yl-1H-imidazo[4,5-c]quinolin-2-yl)propan-1-ol] |  |  |  | > 100 | > 100 |  |
| Nc1nc2cc(-c3cccs3)ccc2c2[nH]c(CCCOCc3ccccc3)nc12 [Compound 243] |  |  |  | 1 to 20 |  |  |
